Measurements reported in patent US20100152274A1, “CRYSTALLINE FORMS OF ATORVASTATIN 4-(NITROOXY) BUTYL ESTER” (Nicox S.A., priority 2007, published 2010).
Entries after “also recorded” stand apart in the source; their conditions may differ.

Key:
Assay type in all cases: physicochemical
[1] = Stability at 40° C. and 75% of relative humidity, open vials, monitored by Raman spectroscopy and PXRD; conditions: for Stability in the reported conditions (heat and humidity): 40° C. and 75% r.h., summary statement; for Change of solid form by PXRD and Raman: open vials, 40° C., 75% relative humidity, after one and four weeks; for RESULTING FORM: Storage at 40° C. and 75% r.h., 28 d.
Description: Stability at 40° C. and 75% of relative humidity of atorvastatin 4-(nitrooxy)butyl ester A and form B in comparison with the amorphous form was assessed. Atorvastatin 4-(nitrooxy)butyl ester form A, form B and amorphous were stored in open vials for one month at 40° C. and in presence of 75% of relative humidity, and the samples were monitored by Raman spectroscopy and by PXRD after one and four weeks.

[2] = Stability of amorphous form in aqueous suspension at room temperature, monitored by Raman spectroscopy and PXRD; conditions: for RESULTING FORM: Suspension in H2O, rt
Description: Stability of amorphous atorvastatin 4-(nitrooxy)butyl ester in aqueous suspension was assessed. Amorphous atorvastatin 4-(nitrooxy)butyl ester was suspended in water at room temperature while stirring and monitored by Raman spectroscopy after one, seven and twenty-eight days.

[3] = General stability statements (humidity, water, organic solvents, heat); conditions: no test details

Change of solid form by PXRD and Raman ([1]; listed as amorphous atorvastatin 4-(nitrooxy)butyl ester) | RESULTING FORM ([2]; 1 d.) | RESULTING FORM ([2]; 1 d., listed as Amorphous atorvastatin 4-(nitrooxy)butyl ester) | RESULTING FORM ([2]; 7 d.) | RESULTING FORM ([2]; 28 d.) | RESULTING FORM ([2]; 28 d., listed as Amorphous atorvastatin 4-(nitrooxy)butyl ester) | RESULTING FORM [1] | Change of solid form by PXRD and Raman [1] | SMILES | Stability in the reported conditions (heat and humidity) ([1]; listed as Amorphous form) | RESULTING FORM ([2]; 7 d., listed as Amorphous atorvastatin 4-(nitrooxy)butyl ester) | Stability in aqueous suspension ([2]; room temperature, summary statement) | Stability (general statement) ([3]; listed as amorphous form of Atorvastatin 4-(nitrooxy)butyl ester) | Stability in the reported conditions (heat and humidity) [1] | Stability (general statement) [3]
converts to form B | Amorphous | pure amorphous | Amorphous (+B) | Amorphous + B | mixture of amorphous form and form B |  |  | CC(C)c1c(C(=O)Nc2ccccc2)c(-c2ccccc2)c(-c2ccc(F)cc2)n1CC[C@@H](O)C[C@@H](O)CC(=O)OCCCCO[N+](=O)[O-] [Amorphous, atorvastatin 4-(nitrooxy)butyl ester] | not stable, showing rapid conversion to form B | detectable amount of form B was observed; also recorded: start of crystallization of form B | not stable in aqueous suspension at room temperature | unstable at humidity conditions, in organic solvents and in stressed thermal conditions |  | 
 |  |  |  |  |  | Form A | no differences in the solid form | CC(C)c1c(C(=O)Nc2ccccc2)c(-c2ccccc2)c(-c2ccc(F)cc2)n1CC[C@@H](O)C[C@@H](O)CC(=O)OCCCCO[N+](=O)[O-] [Form A, (βR,δR)-2(4-fluorophenyl)-β,δ-dihydroxy-5-(1-methylethyl)-3-phenyl-4-[(phenylamino)carbon-yl]-1H-pyrrole-1-heptanoic acid 4-(nitrooxy)butyl ester] |  |  |  |  | stable in the reported conditions for at least four weeks | good stability in water, in organic solvents, and when exposed to heat and humidity
 |  |  |  |  |  | Form B | no differences in the solid form | CC(C)c1c(C(=O)Nc2ccccc2)c(-c2ccccc2)c(-c2ccc(F)cc2)n1CC[C@@H](O)C[C@@H](O)CC(=O)OCCCCO[N+](=O)[O-] [Form B, (βR,δR)-2(4-fluorophenyl)-β,δ-dihydroxy-5-(1-methylethyl)-3-phenyl-4-[(phenylamino)carbon-yl]-1H-pyrrole-1-heptanoic acid 4-(nitrooxy)butyl ester] |  |  |  |  | stable in the reported conditions for at least four weeks | good stability in water, in organic solvents, and when exposed to heat and humidity
